# Measurements: patent publication US20190201430A1, “TREATING OCULAR NEOVASCULARIZATION” (Massachusetts Eye and Ear Infirmary, priority 2014, published 2019)
# Tests used:
# [1] = system: retinoblastoma xenografts; settings: AICAR-treated retinoblastoma xenografts; cited from earlier work
# HUVECs = test: Albumin endocytosis assay under VEGF; assay type: cell-based, human; settings: AICAR 2 mM 2 h, VEGF 12.5 ng/mL 10 min; FIG. 10B
# Experimental: After overnight serum starvation, HUVECs were pretreated with AICAR (2 mM) for 2 h and then stimulated with VEGF (12.5 ng/mL) for 10 min. We added BSA conjugated with Alexa 555 (50 μg/mL, Life Technologies, Gaithersburg, Md.) in the medium during the experiment. Cells on coverslips were washed three times with cold TBS and fixed in 100% methanol at −20° C. for 15 min. Cells were then permeabilized in 0.3% Triton X-100, 0.15% BSA in TBS with 0.05% Tween 20 (TBST) for 15 min at room temperature, and blocked with 0.5% skim milk in TBST for 60 min at room temperature. Cells were incubated in p-caveolin-1 antibody diluted 1:200 and VE-cadherin antibody diluted 1:400 overnight at 4° C., and then incubated for 2 h in secondary antibody diluted 1:300. Cells were then rinsed three times in TBST before mounting in Toto3 (Life Technologies). Images were acquired with a Leica TCS SP2 spectral confocal laser scanning microscope (Leica Microsystems, Wetzlar, Germany).
# AMPK [2] = test: Western blotting of AMPK phosphorylation in HUVECs (Example 2); assay type: cell-based, human
# Experimental: (§1) Human umbilical vein endothelial cells (HUVECs) were cultured in endothelial growth medium (EGM, Lonza, Walkersville, Md.). Normal human dermal fibroblasts (NHDFs) were cultured in fibroblast basal medium (ATCC, Rockville, Md.). Cells were grown at 37° C. in a humidified atmosphere of 95% air, 5% CO2. Experiments were performed on cells below passage 3 to 6 grown to 80%-90% confluence.
# (§2) Protein extraction and Western blotting were carried out as described previously (Morizane et al. JBC (26)). We conducted a densitometric analysis of bands using ImageJ software. Lane-loading differences were normalized by β-actin.
# HUVEC monolayer = test: In vitro vascular permeability assay (Alexa 555-BSA leakage); assay type: cell-based, human; settings: AICAR 2 mM 2 h, VEGF 12.5 ng/mL 10 min; FIG. 10A
# Experimental: We conducted the in vitro vascular permeability assay using Alexa Flour 555-labeled bovine serum albumin (BSA) (Invitrogen) and an In Vitro Vascular Permeability Assay kit (Millipore). According to the manufacturer's instructions, HUVECs were seeded at a density of 1×10^5 on a collagen-coated polystyrene filter. After a confluent monolayer was formed, each chamber was treated with AICAR or stimulated with VEGF. To measure endothelial permeability, 100 μL of Alexa Flour 555-BSA solution (0.050 mg/mL) was added into the insert and incubated for 10 min, and then the insert was removed and 100 μL medium was collected from the bottom chamber.
# The fluorescent density of samples was analyzed on a SPECTRAmax GEMINI XS Microplate Spectrofluorometer (Molecular Devices, Sunnyvale, Calif.) at excitation and emission wavelengths of 555 nm and 565 nm, respectively.
# Akt = test: Western blotting of Akt phosphorylation in HUVECs (VEGF); assay type: cell-based, human
# Experimental: as §1, §2
# Cells were transfected with siRNAs using a Nucleofection kit (Amaxa Biosystems, Gaithersburg, Md.), following the manufacturer's protocol. The medium was changed 6 h after transfection. The down-regulation of each protein was evaluated 3 days after nucleofection.
# PTEN = test: Western blotting of PTEN phosphorylation in HUVECs; assay type: cell-based, human; settings: AICAR 2 mM, presence or absence of VEGF; FIG. 9A,D
# Experimental: as §1, §2
# endothelial cells = settings: in the absence of VEGF; cited from earlier work
# AMPK [3] = test: Western blotting of AMPK phosphorylation in HUVEC (Example 1); assay type: cell-based, human; settings: each concentration of AICAR for 2 h, FIG. 2A
# Experimental: HUVECs (Lonza, Walkersville, Md.) were cultured in Endothelial Growth Medium (EGM, Lonza, Walkersville, Md.). For all experiments, cells were grown at 37° C. in a humidified atmosphere of 5% CO2 and 95% air. Experiments were performed on cells below passage 3 to 6 grown to 80-90% confluence.
# Protein extraction and western blotting were carried out as described previously (Morizane et al. JBC). Densitometric analysis of bands was performed using ImageJ software. Lane-loading differences were normalized by β-actin.
# VEGFR2/caveolin-1 = test: Immunoprecipitation of VEGFR2 with caveolin-1 under VEGF; assay type: cell-based, human; settings: AICAR 2 mM 2 h, VEGF 12.5 ng/mL 10 min; FIG. 8F,G
# Experimental: Immunoprecipitation was performed with the Universal Magnetic Co-IP Kit (Active Motif North America, Carlsbad, Calif.) according to the manufacturer's instruction.
smiles,measurement,setting,value
"NC(=O)c1ncn([C@@H]2O[C@H](CO)[C@@H](O)[C@H]2O)c1N [AICAR, 5-Aminoimidazole-4-carboxamide riboside]",tumor vessel formation,[1],decrease in tumor vessel formation
same,VEGF-induced albumin endocytosis,HUVECs,significantly suppressed
same,AMPK phosphorylation on AICAR treatment (time course),"AMPK [2]; AICAR 2 mM, presence or absence of VEGF, FIG. 9A,B",resulted in AMPK and PTEN phosphorylation
same,AMPK phosphorylation on AICAR administration,"AMPK [2]; each concentration of AICAR for 2 h, FIG. 12A",dose dependent AMPK phosphorylation
same,VEGF-induced albumin leakage,HUVEC monolayer,significantly suppressed
same,VEGF induced Akt phosphorylation,"Akt; AICAR 2 mM 2 h, VEGF 12.5 ng/mL 0 to 60 min, FIG. 8C,E",significantly suppressed and delayed
same,Akt phosphorylation state on AICAR treatment (time course),"Akt; AICAR 2 mM, presence or absence of VEGF, FIG. 9A,C",Akt dephosphorylation
same,inhibitory effect of AICAR on VEGF-induced Akt phosphorylation after knockdown of either AMPKα isoform,"Akt; AMPKα1 or α2 siRNA, AICAR 2 mM 2 h, VEGF 12.5 ng/mL 10 min, FIG. 13",abolished
same,effects of AICAR on Akt dephosphorylation after PTEN knockdown,"Akt; PTEN siRNA, AICAR 2 mM 2 h, VEGF 12.5 ng/mL 10 min, FIG. 9E,F",abrogated
same,PTEN phosphorylation on AICAR treatment (time course),PTEN,resulted in AMPK and PTEN phosphorylation
same,endothelial proliferation,endothelial cells,suppressed endothelial proliferation
same,AMPK phosphorylation after AICAR administration,AMPK [3],phosphorylated AMPK dose-dependently
same,VEGFR2 dissociation from caveolin-1 upon VEGF stimulation,VEGFR2/caveolin-1,no effect
